Assay results taken from publication PMC3410962 (2012).

Target: prostate-specific membrane antigen (PSMA) (Homo sapiens, UniProt Q04609)
Experiment: HPLC-based inhibition assay of purified PSMA with PABGγG substrate
Format: biochemical

Chain of prostate-specific membrane antigen (PSMA) (Q04609 whole entry): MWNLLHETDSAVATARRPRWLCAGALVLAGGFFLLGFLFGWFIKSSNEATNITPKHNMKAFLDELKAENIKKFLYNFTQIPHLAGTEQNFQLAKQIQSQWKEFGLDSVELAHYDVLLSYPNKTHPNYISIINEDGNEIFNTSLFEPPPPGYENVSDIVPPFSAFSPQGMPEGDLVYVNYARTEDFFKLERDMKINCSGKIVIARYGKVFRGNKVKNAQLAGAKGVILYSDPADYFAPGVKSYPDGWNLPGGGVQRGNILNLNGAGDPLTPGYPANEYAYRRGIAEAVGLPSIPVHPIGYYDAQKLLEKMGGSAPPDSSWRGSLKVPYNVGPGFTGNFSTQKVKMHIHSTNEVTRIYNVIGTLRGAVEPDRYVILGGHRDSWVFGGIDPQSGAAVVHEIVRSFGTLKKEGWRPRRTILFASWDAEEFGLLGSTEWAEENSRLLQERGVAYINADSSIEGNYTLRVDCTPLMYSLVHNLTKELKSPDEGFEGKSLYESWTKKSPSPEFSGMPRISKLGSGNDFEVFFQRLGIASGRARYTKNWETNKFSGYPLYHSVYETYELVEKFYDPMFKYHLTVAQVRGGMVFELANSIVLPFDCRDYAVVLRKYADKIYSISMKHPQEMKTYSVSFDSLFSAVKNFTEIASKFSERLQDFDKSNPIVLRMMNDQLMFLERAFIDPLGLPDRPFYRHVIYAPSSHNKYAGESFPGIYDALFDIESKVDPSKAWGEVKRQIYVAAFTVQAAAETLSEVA

Substance biotin-PEG12-CTT-54 has an IC50 of 10 nM.
